Test [1] deals with HCV 1b-BB7 subgenomic replicon. In words: microbe, parasite or virus in culture. The following applies: Hepatitis C virus, stable replicon. The format is cell-based, HCV genotype 1b. In general terms: In antiviral work, replicon cells carry a viral genome segment that copies itself.
The target of test [2] is T1, HCV NS5B polymerase 1b BK strain (Hepatitis C virus genotype 1b, UniProt P26663).
T1 construct: six-histidine tag; made in house; host or cells: E. coli
In words: HCV NS5B polymerase enzymatic inhibition assay, strain 1b BK. It is filed as biochemical. The following applies: enzyme, strain 1b BK; read-out: HCV Polymerase Strain 1b BK IC50. In short, it runs like this:
(§1)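 E. coli-expressed NS5B (residues 1-570, His-tagged) transcribed a 2.1 kb HCV 1b negative-strand 3′-end RNA template (5 nM) with 20 μM CTP, 20 μM ATP and 0.284 μM [3H]UTP for 3 h at 30° C. Spermine-precipitated RNA was filter-captured and counted by scintillation; IC50 from nonlinear regression.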

Test [3] concerns the target T2, HCV NS5B polymerase 1a-H77-C316Y (Hepatitis C virus genotype 1a, UniProt P27958, C2736Y).
T2 construct: six-histidine tag; made in house; host or cells: E. coli
Briefly: biochemical. Also on record: species or system HCV genotype 1a. In short, it runs like this: as §1

The test system of test [4] is HCV NS5B polymerase 1a-H77-C316Y. Briefly: biochemical. Also on record: species or system HCV genotype 1a. The following applies: ratio of enzyme IC50s, 1a H77-C316Y / 1a H77. In short, it runs like this:
as §1

Test [5] has as its target T3, HCV NS5B polymerase 1a-H77 (Hepatitis C virus genotype 1a, UniProt P27958).
T3 construct: six-histidine tag; made in house; host or cells: E. coli
Briefly: biochemical. The arrangement: species or system HCV genotype 1a. The following applies: enzyme, strain 1a H77; read-out: HCV Polymerase Strain 1a H77 IC50. In a few lines: as §1

For test [6], the system named is HCV 1a-H77 subgenomic replicon. In words: microbe, parasite or virus in culture. The following applies: Hepatitis C virus, stable replicon. It is filed as cell-based, HCV genotype 1a.
[7] abbreviates: strain 1b BB7, 5% FBS + 40% human plasma, read-out: 1b BB7 5% FBS + 40% Human Plasma EC50.
The mark [8] stands for this setting: strain 1b BB7, 5% FBS, no human plasma, read-out: 1b BB7 5% FBS EC50.
[9] abbreviates: strain 1b BB7, 5% FBS, read-out: 1b BB7 5% FBS EC50.
Setting [10] is: 5% FBS, absence of human plasma, read-out: Stable Replicon 1a H77 5% FBS EC50.
The mark [11] stands for this setting: strain 1a H77, 5% FBS + 40% human plasma, read-out: 1a H77 5% FBS + 40% Human Plasma EC50.
The mark [12] stands for this setting: strain 1a H77, 5% FBS, no human plasma, read-out: 1a H77 5% FBS EC50.
Where [13] appears, read: strain 1a H77, 5% FBS, read-out: 1a H77 5% FBS EC50.

The source of these data is US20160355530A1, “HEPATITIS C INHIBITORS AND USES THEREOF” (AbbVie Inc., priority 2010, published 2016).

One may read the EC50 as the concentration at which the effect is half-maximal. By IC50 is commonly meant the concentration that inhibits the measured activity by half.

Read-outs that look alike come from different tables or passages of the source.

T2 sequence (P27958 2421-2990 C2736Y): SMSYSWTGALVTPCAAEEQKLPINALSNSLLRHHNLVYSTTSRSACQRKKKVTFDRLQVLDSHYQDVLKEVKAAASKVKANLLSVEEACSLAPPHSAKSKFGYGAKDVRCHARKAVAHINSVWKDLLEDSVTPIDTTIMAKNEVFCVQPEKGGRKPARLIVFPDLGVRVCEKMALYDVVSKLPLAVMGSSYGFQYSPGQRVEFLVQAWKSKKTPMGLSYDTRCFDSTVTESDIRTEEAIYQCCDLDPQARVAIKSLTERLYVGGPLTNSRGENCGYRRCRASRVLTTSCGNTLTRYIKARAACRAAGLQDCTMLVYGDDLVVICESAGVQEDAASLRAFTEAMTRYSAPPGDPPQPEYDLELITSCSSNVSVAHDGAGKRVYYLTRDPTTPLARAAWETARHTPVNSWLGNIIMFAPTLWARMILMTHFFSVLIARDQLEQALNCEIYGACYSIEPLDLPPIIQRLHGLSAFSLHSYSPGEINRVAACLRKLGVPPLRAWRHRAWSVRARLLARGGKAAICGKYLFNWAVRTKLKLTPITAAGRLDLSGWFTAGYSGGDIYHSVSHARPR
T1 sequence (P26663 2420-2989): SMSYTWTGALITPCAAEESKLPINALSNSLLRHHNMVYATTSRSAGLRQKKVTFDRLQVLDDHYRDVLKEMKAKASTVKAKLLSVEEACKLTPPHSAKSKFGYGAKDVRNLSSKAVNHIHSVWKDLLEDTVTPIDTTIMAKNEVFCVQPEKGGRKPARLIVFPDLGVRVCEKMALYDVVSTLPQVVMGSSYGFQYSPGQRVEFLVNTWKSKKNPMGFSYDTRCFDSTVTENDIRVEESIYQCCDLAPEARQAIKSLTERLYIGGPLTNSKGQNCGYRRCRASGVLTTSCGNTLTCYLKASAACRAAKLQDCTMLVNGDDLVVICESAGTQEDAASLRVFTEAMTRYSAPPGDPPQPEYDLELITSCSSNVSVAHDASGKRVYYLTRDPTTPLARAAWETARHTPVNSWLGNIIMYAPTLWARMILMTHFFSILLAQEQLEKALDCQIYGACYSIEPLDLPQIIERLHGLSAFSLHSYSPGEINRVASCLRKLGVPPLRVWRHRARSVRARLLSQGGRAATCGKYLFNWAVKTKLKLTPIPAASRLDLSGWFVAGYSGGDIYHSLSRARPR
T3 sequence (P27958 2421-2990): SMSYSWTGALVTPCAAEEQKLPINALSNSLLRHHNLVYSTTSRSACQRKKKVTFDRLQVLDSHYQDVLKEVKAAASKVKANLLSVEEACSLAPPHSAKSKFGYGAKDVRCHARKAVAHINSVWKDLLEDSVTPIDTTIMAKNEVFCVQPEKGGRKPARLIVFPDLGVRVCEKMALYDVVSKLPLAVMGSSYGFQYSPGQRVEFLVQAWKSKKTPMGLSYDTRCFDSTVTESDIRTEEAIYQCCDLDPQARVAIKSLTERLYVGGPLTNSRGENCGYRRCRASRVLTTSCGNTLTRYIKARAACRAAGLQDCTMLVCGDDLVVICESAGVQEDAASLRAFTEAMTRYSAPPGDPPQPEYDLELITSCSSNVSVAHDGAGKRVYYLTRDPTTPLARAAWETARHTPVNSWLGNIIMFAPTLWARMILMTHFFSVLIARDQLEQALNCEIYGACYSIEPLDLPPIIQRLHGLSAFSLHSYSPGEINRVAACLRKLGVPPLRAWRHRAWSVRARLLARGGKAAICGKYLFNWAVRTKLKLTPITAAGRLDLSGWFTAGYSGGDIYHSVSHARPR

Take `CS(=O)(=O)N(CCCC(=O)N1CCCCC1)c1cc2oc(-c3ccc(F)cc3)c(-c3ncc[nH]3)c2cc1C1CC1` [Example 104, N-[5-cyclopropyl-2-(4-fluorophenyl)-3-(1H-imidazol-2-yl)-1-benzofuran-6-yl]-N-[4-oxo-4-(piperidin-1-yl)butyl]methanesulfonamide]: the concentration giving a half-maximal response (EC50) in test [1] (setting [7]) worked out at 268 nM; in test [1] (setting [8]) it was 13.3 nM; in test [1] (setting [9]), 13.3 nM; in test [6] (setting [10]) it was 31.9 nM; in test [6] (setting [11]), 502 nM; in test [6] (setting [12]) it was 31.9 nM. The EC50 in test [6] (setting [13]) came to 31.9 nM. The IC50 in test [2] was 52 nM; in test [3] it was 180 nM; in test [5], 6.9 nM. In test [4], the “C316Y/1a Fold Resistance” value turned out to be 26 fold.
Consider `COc1ccc(CN(c2cc3oc(-c4ccc(F)cc4)c(-c4nc(Cl)c[nH]4)c3cc2C2CC2)S(C)(=O)=O)cc1` [Example 159, N-[3-(4-chloro-1H-imidazol-2-yl)-5-cyclopropyl-2-(4-fluorophenyl)-1-benzofuran-6-yl]-N-(4-methoxybenzyl)methanesulfonamide], for which the EC50 in test [1] (setting [7]) amounted to 10000 nM; in test [1] (setting [8]), 544 nM; in test [1] (setting [9]) it was 544 nM; in test [6] (setting [10]), 990 nM; in test [6] (setting [11]) it was 10000 nM; in test [6] (setting [12]), 990 nM. The 50% effective concentration (EC50) in test [6] (setting [13]) was 990 nM. Moreover, the half-maximal inhibitory concentration (IC50) in test [2] was found to be 438 nM; in test [3], 8000 nM; in test [5], 45 nM. In test [4], the “C316Y/1a Fold Resistance” value is listed as 178 fold.
As for `CS(=O)(=O)N(CCCC(=O)O)c1cc2oc(-c3ccc(F)cc3)c(-c3ncc[nH]3)c2cc1C1CC1` [Example 89, 4-{[5-cyclopropyl-2-(4-fluorophenyl)-3-(1H-imidazol-2-yl)-1-benzofuran-6-yl](methylsulfonyl)amino}butanoic acid], the concentration giving a half-maximal response (EC50) in test [1] (setting [7]) was determined as 376 nM; in test [1] (setting [8]), 91.5 nM; in test [1] (setting [9]) it was 91.5 nM; in test [6] (setting [10]), 269 nM; in test [6] (setting [11]), 2440 nM; in test [6] (setting [12]) it was 269 nM. Moreover, the concentration for a half-maximal effect (EC50) in test [6] (setting [13]) was 269 nM. In addition, the half-inhibitory concentration (IC50) came out at 65 nM in test [2], 77 nM in test [3] and 5 nM in test [5]. The “C316Y/1a Fold Resistance” value in test [4] is listed as 15 fold.
As to `CS(=O)(=O)N(CCc1ccccc1)c1cc2oc(-c3ccc(F)cc3)c(-c3ncc[nH]3)c2cc1C1CC1` [Example 35, N-[5-cyclopropyl-2-(4-fluorophenyl)-3-(1H-imidazol-2-yl)-1-benzofuran-6-yl]-N-(2-phenylethyl)methanesulfonamide], the EC50 in test [1] (setting [7]) turned out to be 1130 nM; in test [1] (setting [8]), 51 nM; in test [1] (setting [9]), 51 nM; in test [6] (setting [10]) it was 102 nM; in test [6] (setting [11]) it was 1580 nM; in test [6] (setting [12]) it was 102 nM. Moreover, the EC50 in test [6] (setting [13]) amounted to 102 nM. In addition, the IC50 in test [2] worked out at 7 nM; in test [3], 113 nM; in test [5], 4.9 nM. The “C316Y/1a Fold Resistance” value in test [4] was determined as 23 fold.
As for `CS(=O)(=O)N(CCN1CCCC1)c1cc2oc(-c3ccc(F)cc3)c(-c3ncc[nH]3)c2cc1C1CC1` [Example 81, N-[5-cyclopropyl-2-(4-fluorophenyl)-3-(1H-imidazol-2-yl)-1-benzofuran-6-yl]-N-[2-(pyrrolidin-1-yl)ethyl]methanesulfonamide], the EC50 in test [1] (setting [7]) stood at 129 nM; in test [1] (setting [8]), 36.9 nM; in test [1] (setting [9]), 36.9 nM; in test [6] (setting [10]), 205 nM; in test [6] (setting [11]), 732 nM; in test [6] (setting [12]), 205 nM. For the same compound, the EC50 in test [6] (setting [13]) came out at 205 nM. For the same compound, the figures for the IC50 in test [2], in test [3] and in test [5] were 137 nM, 4800 nM and 31.8 nM, respectively. Further, in test [4], the “C316Y/1a Fold Resistance” value stood at 151 fold.
For `CC(c1ccccc1)N(c1ccc2c(-c3ncc[nH]3)c(-c3ccccc3)oc2c1)S(C)(=O)=O` (stereo not shown) [Example 20, N-[3-(1H-imidazol-2-yl)-2-phenyl-1-benzofuran-6-yl]-N-(1-phenylethyl)methanesulfonamide], the half-maximal effective concentration (EC50) in test [1] (setting [7]) was 7300 nM; in test [1] (setting [8]) it was 133 nM; in test [1] (setting [9]), 133 nM; in test [6] (setting [10]) it was 1000 nM; in test [6] (setting [11]) it was 10000 nM; in test [6] (setting [12]), 1000 nM. The concentration for a half-maximal effect (EC50) in test [6] (setting [13]) was determined as 1000 nM. Besides, the concentration for half-maximal inhibition (IC50) in test [2] was 52 nM; in test [3] it was 173 nM; in test [5] it was 34.9 nM. For the same compound, the “C316Y/1a Fold Resistance” value in test [4] turned out to be 5 fold.
In the case of `CC(C)(O)C(O)CN(c1cc2oc(-c3ccc(F)cc3)c(-c3ncc[nH]3)c2cc1C1CC1)S(C)(=O)=O` (stereo not shown) [Example 94, N-[5-cyclopropyl-2-(4-fluorophenyl)-3-(1H-imidazol-2-yl)-1-benzofuran-6-yl]-N-(2,3-dihydroxy-3-methylbutyl)methanesulfonamide], the EC50 in test [1] (setting [7]) was found to be 360 nM; in test [1] (setting [8]), 76.3 nM; in test [1] (setting [9]), 76.3 nM; in test [6] (setting [10]) it was 60.2 nM; in test [6] (setting [11]), 599 nM; in test [6] (setting [12]) it was 60.2 nM. In addition, the 50% effective concentration (EC50) in test [6] (setting [13]) was found to be 60.2 nM. For the same compound, the IC50 worked out at 28 nM in test [2], 1000 nM in test [3] and 9.4 nM in test [5]. For the same compound, the “C316Y/1a Fold Resistance” value in test [4] is recorded as 107 fold.
Turning to `CS(=O)(=O)N(Cc1cnc(-c2c[nH]c(=O)[nH]c2=O)s1)c1ccc2c(-c3ncc[nH]3)c(-c3ccccc3)oc2c1` [Example 29, N-{[2-(2,4-dioxo-1,2,3,4-tetrahydropyrimidin-5-yl)-1,3-thiazol-5-yl]methyl}-N-[3-(1H-imidazol-2-yl)-2-phenyl-1-benzofuran-6-yl]methanesulfonamide], the half-maximal effective concentration (EC50) is 9830 nM in test [1] (setting [7]); 207 nM in test [1] (setting [8]); 207 nM in test [1] (setting [9]); 1000 nM in test [6] (setting [10]); 10000 nM in test [6] (setting [11]); 1000 nM in test [6] (setting [12]). For the same compound, the 50% effective concentration (EC50) in test [6] (setting [13]) came to 1000 nM. In addition, the IC50 turned out to be 9 nM in test [2], 7 nM in test [3] and 3 nM in test [5]. In addition, in test [4], the “C316Y/1a Fold Resistance” value stood at 2 fold.
Turning to `CS(=O)(=O)N(CC1CCNC1)c1cc2oc(-c3ccc(F)cc3)c(-c3ncc[nH]3)c2cc1C1CC1` (stereo not shown) [Example 51, N-[5-cyclopropyl-2-(4-fluorophenyl)-3-(1H-imidazol-2-yl)-1-benzofuran-6-yl]-N-(pyrrolidin-3-ylmethyl)methanesulfonamide], the EC50 in test [1] (setting [7]) stood at 835 nM; in test [1] (setting [8]), 194 nM; in test [1] (setting [9]), 194 nM; in test [6] (setting [10]), 1000 nM; in test [6] (setting [11]), 4590 nM; in test [6] (setting [12]), 1000 nM. Besides, in test [6] (setting [13]), the EC50 amounted to 1000 nM. The half-maximal inhibitory concentration (IC50) in test [2] came out at 74 nM; in test [3], 2050 nM; in test [5], 9.4 nM. The “C316Y/1a Fold Resistance” value in test [4] is 219 fold.
Turning to `CS(=O)(=O)N(CC1CCCC1)c1cc2oc(-c3ccc(F)cc3)c(-c3ncc[nH]3)c2cc1C1CC1` [Example 34, N-(cyclopentylmethyl)-N-[5-cyclopropyl-2-(4-fluorophenyl)-3-(1H-imidazol-2-yl)-1-benzofuran-6-yl]methanesulfonamide], the EC50 in test [1] (setting [7]) was found to be 854 nM; in test [1] (setting [8]), 65 nM; in test [1] (setting [9]), 65 nM; in test [6] (setting [10]), 70 nM; in test [6] (setting [11]) it was 1290 nM; in test [6] (setting [12]), 70 nM. Moreover, the concentration giving a half-maximal response (EC50) in test [6] (setting [13]) turned out to be 70 nM. In addition, the half-maximal inhibitory concentration (IC50) in test [2] is 22 nM; in test [3] it was 149 nM; in test [5], 5 nM. Besides, in test [4], the “C316Y/1a Fold Resistance” value was found to be 30 fold.
For `CS(=O)(=O)N(CCC1CCCCC1)c1cc2oc(-c3ccc(F)cc3)c(-c3ncc[nH]3)c2cc1C1CC1` [Example 72, N-(2-cyclohexylethyl)-N-[5-cyclopropyl-2-(4-fluorophenyl)-3-(1H-imidazol-2-yl)-1-benzofuran-6-yl]methanesulfonamide], the EC50 in test [1] (setting [7]) came to 2210 nM; in test [1] (setting [8]) it was 61 nM; in test [1] (setting [9]) it was 61 nM; in test [6] (setting [10]) it was 73.7 nM; in test [6] (setting [11]) it was 3390 nM; in test [6] (setting [12]), 73.7 nM. Also, the EC50 in test [6] (setting [13]) stood at 73.7 nM. Moreover, the IC50 in test [2] was 46 nM; in test [3], 164 nM; in test [5], 14.3 nM. Also, the “C316Y/1a Fold Resistance” value in test [4] is 11 fold.
